These results are taken from article doi:10.1101/2021.06.15.448479v1 (biorxiv, 2021).

The labels stand for the following.
T1: ACER3 (Homo sapiens, UniProt Q9NUN7)
T1 sequence (Q9NUN7 1-267): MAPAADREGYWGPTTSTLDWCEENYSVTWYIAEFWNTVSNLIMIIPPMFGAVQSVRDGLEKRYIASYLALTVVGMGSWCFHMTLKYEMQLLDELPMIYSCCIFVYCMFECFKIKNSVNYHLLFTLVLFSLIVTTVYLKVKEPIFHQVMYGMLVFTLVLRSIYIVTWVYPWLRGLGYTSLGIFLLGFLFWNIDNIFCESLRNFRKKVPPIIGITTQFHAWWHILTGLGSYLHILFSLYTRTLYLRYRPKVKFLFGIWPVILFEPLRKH

B1: ACER3 (Homo sapiens) (protein)
chain: MAPAADREGYWGPTTSTLDWCEENYSVTWYIAEFWNTVSNLIMIIPPMFGAVQSVRDGLEKRYIASYLALTVVGMGSWCFHMTLKYEMQLLDELPMIYSCCIFVYCMFECFKIKNSVNYHLLFTLVLFSLIVTTVYLKVKEPIFHQVMYGMLVFTLVLRSIYIVTWVYPWLRGLGYTSLGIFLLGFLFWNIDNIFCESLRNFRKKVPPIIGITTQFHAWWHILTGLGSYLHILFSLYTRTLYLRYRPKVKFLFGIWPVILFEPLRKH

The target of one data set is T1, ACER3. Description: FRETcer1 hydrolysis, FRET, crude membranes of overexpressing Sf9 cells.
Details: not given
In kind it is cell-based.
For the molecule `CCCC(C)NC(=O)c1ccc(Cl)c(Cl)c1` (stereo not shown) [NSC405020], half-maximal inhibition (IC50) required 5.29 ± 2.16 µM.
`Cc1noc(CCNC(=O)N2CCC(c3ccc(F)c(F)c3)CC2)n1` [Z1124621112] registered a 50% inhibitory concentration (IC50) of 1.31 ± 0.95 µM.
On to `O=C(Nc1cnn(C2CCC2)c1)N1CCC(c2cccc(F)c2)CC1` [Z2956776388], for which the IC50 stood at 1.04 ± 0.35 µM.
In turn, `CCCCNC(=O)Cc1noc(C(C)c2cccc(O)c2)n1` (stereo not shown) [Z3016340412] registered an IC50 of 1.21 ± 0.74 µM.

In another data set the target is T1, ACER3. Description: biochemical.
Details: not given
`CCCCC/C=C\C/C=C\CCCCCCCC(=O)O` [linoleic acid] yielded an IC50 of 1.5 µM.
On the same count and under the same terms, with `CCCCCCCCCCCCCC(=O)O` [myristic acid] the figure was 9.3 µM; with `CCCCCCCC/C=C\CCCCCCCC(=O)O` [oleic acid], 2.3 µM; with `CCCCCCCCCCCCCCCC(=O)O` [palmitic acid], 12.6 µM.
On the same count and under the same terms, with `CCCCCC/C=C\CCCCCCCC(=O)O` [palmitoleic acid] the figure was 1.9 µM; with `CCCCCCCCCCCCCCCCCC(=O)O` [stearic acid], 29.3 µM.

For another data set, the target named is T1, ACER3. Briefly: FRETcer1 hydrolysis, FRET, crude membranes of overexpressing Sf9 cells. Format: biochemical.
Details: not given
This is another data set of the same source.
As to `CCCC(C)C(=O)Nc1ccc(Cl)c(C(F)(F)F)c1` (stereo not shown) [compound 02, Compound 02], the IC50 came to 0.7 µM.
The same measure, in the same setting: with `CC(C)[C@H]1CC[C@H](C(=O)Nc2ccc(Cl)c(Cl)c2)CC1` [compound 03, N-(3,4-dichlorophenyl)-4-isopropylcyclohexane-1-carboxamide] the figure was 0.71 µM.

Substrate in another data set: Cc1c(Br)c(=O)oc2cc3c(cc12)OC(CC(=O)NCCCCCC(=O)N[C@@H](CO)[C@H](O)/C=C/CCCCCCCCCNc1ccc([N+](=O)[O-])c2nonc12)O3
Briefly: cells, lysate or membranes. Particulars: detergent-purified ACER3.
Turning to B1, the Km is on record as 10.76 ± 2.03 µM.

In general, IC50 refers to the concentration at which inhibition is half-maximal. As a reminder, the Km is the substrate concentration at which the rate is half of its maximum.
